The kinase profiling compilation of Christmann-Franck et al. (2016)
Values belong to the compound of their own block, whether it stands above or below them.

Assays:
Assay in all cases: radiometric filter-binding kinase assay, Kinase HotSpot
Settings in all cases: compound 0.5 µM; ATP 10 µM
[1] = biological target: AURKA (human) (UniProt O14965)
[2] = biological target: AURKB (human) (UniProt Q96GD4)
[3] = biological target: CAMK2G (human) (UniProt Q13555)
[4] = biological target: CLK4 (human) (UniProt Q9HAZ1)
[5] = biological target: DAPK3 (human) (UniProt O43293)
[6] = biological target: EPHB1 (human) (UniProt P54762)
[7] = biological target: ERBB4 (human) (UniProt Q15303)
[8] = biological target: FGFR2 (human) (UniProt P21802)
[9] = biological target: FGFR3 (human) (UniProt P22607)
[10] = biological target: FLT3 (human) (UniProt P36888)
[11] = biological target: FRK (human) (UniProt P42685)
[12] = biological target: GRK4 (human) (UniProt P32298)
[13] = biological target: GRK7 (human) (UniProt Q8WTQ7)
[14] = biological target: GSK3B (human) (UniProt P49841)
[15] = biological target: INSRR (human) (UniProt P14616)
[16] = biological target: IRAK1 (human) (UniProt P51617)
[17] = biological target: JAK3 JH1 JH2 (human) (UniProt P52333)
[18] = biological target: MAP3K9 (human) (UniProt P80192)
MAP3K9 (human), sequence (P80192 whole entry, looked up): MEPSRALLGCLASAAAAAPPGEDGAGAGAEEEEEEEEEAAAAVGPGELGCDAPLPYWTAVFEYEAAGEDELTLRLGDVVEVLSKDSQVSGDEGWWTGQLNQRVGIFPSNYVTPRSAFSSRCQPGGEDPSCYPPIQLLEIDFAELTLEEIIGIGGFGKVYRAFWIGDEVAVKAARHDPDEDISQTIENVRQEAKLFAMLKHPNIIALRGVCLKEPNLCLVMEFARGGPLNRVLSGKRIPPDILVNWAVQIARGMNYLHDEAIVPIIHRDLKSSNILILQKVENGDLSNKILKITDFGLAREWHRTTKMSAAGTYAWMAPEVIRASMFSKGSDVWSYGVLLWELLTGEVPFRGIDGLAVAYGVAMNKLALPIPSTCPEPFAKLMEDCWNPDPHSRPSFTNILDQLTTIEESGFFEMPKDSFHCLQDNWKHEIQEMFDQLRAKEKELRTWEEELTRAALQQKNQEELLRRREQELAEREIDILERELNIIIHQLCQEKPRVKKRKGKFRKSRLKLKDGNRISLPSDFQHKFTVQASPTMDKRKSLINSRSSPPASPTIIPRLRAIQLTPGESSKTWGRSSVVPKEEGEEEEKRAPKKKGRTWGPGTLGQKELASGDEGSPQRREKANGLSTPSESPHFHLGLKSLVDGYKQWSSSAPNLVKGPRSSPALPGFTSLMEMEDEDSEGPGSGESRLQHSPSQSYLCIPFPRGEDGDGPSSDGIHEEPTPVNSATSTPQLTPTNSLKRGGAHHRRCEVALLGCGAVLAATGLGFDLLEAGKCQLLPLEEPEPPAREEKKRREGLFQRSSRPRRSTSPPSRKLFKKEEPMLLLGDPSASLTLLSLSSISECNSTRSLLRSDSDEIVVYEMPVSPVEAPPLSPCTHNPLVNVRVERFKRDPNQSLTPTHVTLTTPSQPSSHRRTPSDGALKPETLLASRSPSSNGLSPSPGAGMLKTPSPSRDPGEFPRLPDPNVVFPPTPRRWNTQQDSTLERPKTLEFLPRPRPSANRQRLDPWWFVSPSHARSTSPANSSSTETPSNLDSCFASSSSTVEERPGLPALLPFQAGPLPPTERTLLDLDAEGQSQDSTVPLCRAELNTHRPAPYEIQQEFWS

[19] = biological target: MAPK10 (human) (UniProt P53779)
MAPK10 (human), sequence (P53779 whole entry, looked up): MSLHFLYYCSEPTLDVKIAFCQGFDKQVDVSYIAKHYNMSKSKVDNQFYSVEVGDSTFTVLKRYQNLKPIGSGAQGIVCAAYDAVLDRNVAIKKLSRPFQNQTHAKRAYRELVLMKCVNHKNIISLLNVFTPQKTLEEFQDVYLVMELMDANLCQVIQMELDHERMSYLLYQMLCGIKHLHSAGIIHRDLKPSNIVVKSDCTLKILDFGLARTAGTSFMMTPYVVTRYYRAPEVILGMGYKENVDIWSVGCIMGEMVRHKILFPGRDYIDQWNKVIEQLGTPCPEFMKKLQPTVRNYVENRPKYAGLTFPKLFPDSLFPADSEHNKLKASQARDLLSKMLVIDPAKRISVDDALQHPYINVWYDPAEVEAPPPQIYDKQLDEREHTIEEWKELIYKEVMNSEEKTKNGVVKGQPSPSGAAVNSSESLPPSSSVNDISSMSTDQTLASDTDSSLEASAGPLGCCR

[20] = biological target: MAPK13 (human) (UniProt O15264)
[21] = biological target: MAPK14 (human) (UniProt Q16539)
[22] = biological target: MAPK3 (human) (UniProt P27361)
[23] = biological target: MARK1 (human) (UniProt Q9P0L2)
[24] = biological target: MARK2 (human) (UniProt Q7KZI7)
[25] = biological target: MARK3 (human) (UniProt P27448)
[26] = biological target: MYLK2 (human) (UniProt Q9H1R3)
MYLK2 (human), sequence (Q9H1R3 whole entry, looked up): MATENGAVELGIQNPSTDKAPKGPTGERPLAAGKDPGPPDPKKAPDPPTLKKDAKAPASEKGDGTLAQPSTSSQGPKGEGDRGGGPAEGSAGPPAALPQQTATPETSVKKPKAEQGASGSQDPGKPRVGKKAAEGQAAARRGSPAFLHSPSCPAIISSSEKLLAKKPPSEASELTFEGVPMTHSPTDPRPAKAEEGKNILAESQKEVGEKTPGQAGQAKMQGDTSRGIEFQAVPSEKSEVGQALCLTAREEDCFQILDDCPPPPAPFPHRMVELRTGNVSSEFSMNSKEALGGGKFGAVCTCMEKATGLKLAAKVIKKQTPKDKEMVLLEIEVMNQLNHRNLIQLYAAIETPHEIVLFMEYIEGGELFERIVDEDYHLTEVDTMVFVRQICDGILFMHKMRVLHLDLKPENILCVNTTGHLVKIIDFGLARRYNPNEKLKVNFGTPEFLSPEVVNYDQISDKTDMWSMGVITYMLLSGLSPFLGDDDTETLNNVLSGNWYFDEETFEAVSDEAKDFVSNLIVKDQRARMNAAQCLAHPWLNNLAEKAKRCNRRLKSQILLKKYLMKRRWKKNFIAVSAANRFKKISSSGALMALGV

[27] = biological target: PAK6 (human) (UniProt Q9NQU5)
PAK6 (human), sequence (Q9NQU5 whole entry, looked up): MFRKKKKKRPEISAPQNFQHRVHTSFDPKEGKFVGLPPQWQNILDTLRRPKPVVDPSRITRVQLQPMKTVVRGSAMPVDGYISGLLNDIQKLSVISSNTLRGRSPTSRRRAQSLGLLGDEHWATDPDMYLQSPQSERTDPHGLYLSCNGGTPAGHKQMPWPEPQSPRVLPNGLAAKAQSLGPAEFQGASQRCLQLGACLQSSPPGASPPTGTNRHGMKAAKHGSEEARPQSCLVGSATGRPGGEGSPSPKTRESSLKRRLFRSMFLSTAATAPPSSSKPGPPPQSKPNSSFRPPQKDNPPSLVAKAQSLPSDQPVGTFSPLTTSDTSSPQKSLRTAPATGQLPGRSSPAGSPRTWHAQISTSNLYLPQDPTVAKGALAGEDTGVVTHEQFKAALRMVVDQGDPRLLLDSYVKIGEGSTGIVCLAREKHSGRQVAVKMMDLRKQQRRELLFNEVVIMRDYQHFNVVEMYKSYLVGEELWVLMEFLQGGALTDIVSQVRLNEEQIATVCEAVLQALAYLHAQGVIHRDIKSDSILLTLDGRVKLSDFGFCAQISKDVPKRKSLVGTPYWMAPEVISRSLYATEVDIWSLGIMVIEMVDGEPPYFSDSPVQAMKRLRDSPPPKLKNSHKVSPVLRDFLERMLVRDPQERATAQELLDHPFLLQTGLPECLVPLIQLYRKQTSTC

[28] = biological target: PHKG1 (human) (UniProt Q16816)
[29] = biological target: PHKG2 (human) (UniProt P15735)
[30] = biological target: PIM2 (human) (UniProt Q9P1W9)
[31] = biological target: PKN1 (human) (UniProt Q16512)
[32] = biological target: PLK3 (human) (UniProt Q9H4B4)
[33] = biological target: PNCK (human) (UniProt Q6P2M8)
PNCK (human), sequence (Q6P2M8 whole entry, looked up): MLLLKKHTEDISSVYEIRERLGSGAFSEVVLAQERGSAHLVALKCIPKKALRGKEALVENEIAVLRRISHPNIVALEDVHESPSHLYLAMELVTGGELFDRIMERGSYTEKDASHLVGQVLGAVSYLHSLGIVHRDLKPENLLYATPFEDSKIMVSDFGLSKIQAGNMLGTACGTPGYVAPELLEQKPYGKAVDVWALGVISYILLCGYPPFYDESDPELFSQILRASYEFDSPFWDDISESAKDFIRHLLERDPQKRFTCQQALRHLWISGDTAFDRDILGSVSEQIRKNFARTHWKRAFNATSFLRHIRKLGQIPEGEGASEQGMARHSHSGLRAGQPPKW

[34] = biological target: PRKCB1 (human) (UniProt P05771)
PRKCB1 (human), sequence (P05771 whole entry, looked up): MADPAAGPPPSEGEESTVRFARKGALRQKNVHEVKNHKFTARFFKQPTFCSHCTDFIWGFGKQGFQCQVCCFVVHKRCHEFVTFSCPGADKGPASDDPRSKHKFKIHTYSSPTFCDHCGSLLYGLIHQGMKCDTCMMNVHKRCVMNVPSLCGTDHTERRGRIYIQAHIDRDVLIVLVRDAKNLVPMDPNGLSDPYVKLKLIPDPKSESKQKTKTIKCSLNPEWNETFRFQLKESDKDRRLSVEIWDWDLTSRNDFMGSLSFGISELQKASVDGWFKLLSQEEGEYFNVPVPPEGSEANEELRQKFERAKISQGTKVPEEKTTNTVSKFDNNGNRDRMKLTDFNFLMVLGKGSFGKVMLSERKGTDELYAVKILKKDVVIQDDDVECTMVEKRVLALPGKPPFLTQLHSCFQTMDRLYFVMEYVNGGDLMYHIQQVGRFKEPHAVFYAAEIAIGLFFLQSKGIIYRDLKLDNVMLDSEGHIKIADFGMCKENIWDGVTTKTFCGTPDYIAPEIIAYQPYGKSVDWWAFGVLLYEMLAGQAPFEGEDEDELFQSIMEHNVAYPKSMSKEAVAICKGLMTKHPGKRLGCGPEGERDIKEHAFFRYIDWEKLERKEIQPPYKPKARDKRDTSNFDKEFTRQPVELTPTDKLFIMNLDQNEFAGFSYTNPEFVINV

[35] = biological target: PRKCG (human) (UniProt P05129)
[36] = biological target: PRKCZ (human) (UniProt Q05513)
[37] = biological target: PTK2 (human) (UniProt Q05397)
[38] = biological target: RPS6KA5 KD2 (human) (UniProt O75582)
[39] = biological target: SIK2 (human) (UniProt Q9H0K1)
[40] = biological target: ULK1 (human) (UniProt O75385)
ULK1 (human), sequence (O75385 whole entry, looked up): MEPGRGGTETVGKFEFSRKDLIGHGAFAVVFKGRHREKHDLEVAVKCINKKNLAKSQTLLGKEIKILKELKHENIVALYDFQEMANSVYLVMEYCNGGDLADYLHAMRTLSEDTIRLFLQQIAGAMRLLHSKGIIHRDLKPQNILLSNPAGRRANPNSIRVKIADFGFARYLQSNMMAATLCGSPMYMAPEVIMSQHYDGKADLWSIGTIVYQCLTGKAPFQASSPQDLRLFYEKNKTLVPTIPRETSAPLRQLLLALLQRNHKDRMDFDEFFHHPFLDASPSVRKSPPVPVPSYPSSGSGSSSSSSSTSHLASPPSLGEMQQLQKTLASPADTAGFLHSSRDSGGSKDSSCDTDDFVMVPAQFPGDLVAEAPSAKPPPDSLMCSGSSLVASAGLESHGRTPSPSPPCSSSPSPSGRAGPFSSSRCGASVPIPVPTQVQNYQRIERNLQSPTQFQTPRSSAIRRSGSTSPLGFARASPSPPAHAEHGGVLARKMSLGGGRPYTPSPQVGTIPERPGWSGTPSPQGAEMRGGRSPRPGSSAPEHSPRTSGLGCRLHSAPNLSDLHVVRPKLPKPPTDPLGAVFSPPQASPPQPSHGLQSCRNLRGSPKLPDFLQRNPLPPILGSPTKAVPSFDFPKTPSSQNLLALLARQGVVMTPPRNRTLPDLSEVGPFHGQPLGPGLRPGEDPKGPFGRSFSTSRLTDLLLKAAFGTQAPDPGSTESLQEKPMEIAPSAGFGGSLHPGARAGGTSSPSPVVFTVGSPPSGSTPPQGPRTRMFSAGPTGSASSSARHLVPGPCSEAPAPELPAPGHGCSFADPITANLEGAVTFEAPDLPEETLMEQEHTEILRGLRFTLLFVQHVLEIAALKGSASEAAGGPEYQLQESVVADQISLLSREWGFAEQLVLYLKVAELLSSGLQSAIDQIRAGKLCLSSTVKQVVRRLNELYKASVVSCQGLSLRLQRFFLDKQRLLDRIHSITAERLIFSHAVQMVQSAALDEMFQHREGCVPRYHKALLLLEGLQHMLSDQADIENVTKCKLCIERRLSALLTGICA

[41] = biological target: WEE1 (human) (UniProt P30291)
[42] = biological target: WNK3 (human) (UniProt Q9BYP7)

residual activity [1]: 21.3% | residual activity [2]: 49.6% | residual activity [3]: 69.8% | residual activity [4]: 59.2% | residual activity [5]: 94.4% | residual activity [6]: 86.2% | residual activity [7]: 102% | residual activity [8]: 92.1% | residual activity [9]: 70.4% | residual activity [10]: 2.16% | residual activity [11]: 73.3% | residual activity [12]: 98.3% | residual activity [13]: 84.4% | residual activity [14]: 27.3% | residual activity [15]: 35.7% | residual activity [16]: 68.8% | residual activity [17]: 51.5% | residual activity [18]: 19.1% | residual activity [19]: 96.4% | residual activity [20]: 105% | residual activity [21]: 97.2% | residual activity [22]: 90.4% | residual activity [23]: 74.8% | residual activity [24]: 78.4% | residual activity [25]: 85.8% | residual activity [26]: 41.1% | residual activity [27]: 94.4% | residual activity [28]: 31.5% | residual activity [29]: 60.7% | residual activity [30]: 106% | residual activity [31]: 87.5% | residual activity [32]: 93% | residual activity [33]: 106% | residual activity [34]: 94.7% | residual activity [35]: 96.7% | residual activity [36]: 95.2% | residual activity [37]: 65.8% | residual activity [38]: 67% | residual activity [39]: 89.8% | residual activity [40]: 78.9% | residual activity [41]: 87.1% | residual activity [42]: 89.4%
SMILES: O=C1Nc2ccccc2/C1=C1\Nc2ccccc2\C1=N/O

SMILES: COc1ccc(CNC(=O)Nc2ncc([N+](=O)[O-])s2)cc1
residual activity [1]: 97.4% | residual activity [2]: 97.1% | residual activity [3]: 102% | residual activity [4]: 92.8% | residual activity [5]: 106% | residual activity [6]: 102% | residual activity [7]: 95.2% | residual activity [8]: 97.4% | residual activity [9]: 108% | residual activity [10]: 98.9% | residual activity [11]: 97.2% | residual activity [12]: 92.1% | residual activity [13]: 103% | residual activity [14]: 40.2% | residual activity [15]: 99.2% | residual activity [16]: 108% | residual activity [17]: 105% | residual activity [18]: 101% | residual activity [19]: 96.1% | residual activity [20]: 91.1% | residual activity [21]: 104% | residual activity [22]: 103% | residual activity [23]: 106% | residual activity [24]: 106% | residual activity [25]: 105% | residual activity [26]: 98.5% | residual activity [27]: 106% | residual activity [28]: 101% | residual activity [29]: 105% | residual activity [30]: 94.5% | residual activity [31]: 94.3% | residual activity [32]: 101% | residual activity [33]: 99.3% | residual activity [34]: 103% | residual activity [35]: 99.8% | residual activity [36]: 96.3% | residual activity [37]: 101% | residual activity [38]: 99.5% | residual activity [39]: 89.4% | residual activity [40]: 97.7% | residual activity [41]: 95.2% | residual activity [42]: 101%

residual activity [1]: 9.78% | residual activity [2]: 27.4% | residual activity [3]: 35.3% | residual activity [4]: 6.19% | residual activity [5]: 66.6% | residual activity [6]: 65.9% | residual activity [7]: 97.5% | residual activity [8]: 76% | residual activity [9]: 45.8% | residual activity [10]: 1.07% | residual activity [11]: 49.7% | residual activity [12]: 74.7% | residual activity [13]: 70.3% | residual activity [14]: 12.6% | residual activity [15]: 2.77% | residual activity [16]: 34.5% | residual activity [17]: 16.9% | residual activity [18]: 7.06% | residual activity [19]: 103% | residual activity [20]: 94.8% | residual activity [21]: 101% | residual activity [22]: 98.7% | residual activity [23]: 60.5% | residual activity [24]: 57.4% | residual activity [25]: 75.2% | residual activity [26]: 27.3% | residual activity [27]: 93.5% | residual activity [28]: 8.06% | residual activity [29]: 34.9% | residual activity [30]: 99.5% | residual activity [31]: 49.9% | residual activity [32]: 102% | residual activity [33]: 101% | residual activity [34]: 93.6% | residual activity [35]: 92% | residual activity [36]: 98.5% | residual activity [37]: 35% | residual activity [38]: 37.5% | residual activity [39]: 75.1% | residual activity [40]: 98.3% | residual activity [41]: 82% | residual activity [42]: 79.7%
SMILES: O=C1Nc2ccccc2/C1=C1/Nc2ccccc2/C1=N\OCCC(O)CO (stereo not drawn)

SMILES: CC(C)[C@H](CO)Nc1nc(Nc2cc(N)cc(Cl)c2)c2ncn(C(C)C)c2n1
residual activity [1]: 80.5% | residual activity [2]: 87.8% | residual activity [3]: 104% | residual activity [4]: 16.5% | residual activity [5]: 96.7% | residual activity [6]: 59.2% | residual activity [7]: 131% | residual activity [8]: 97.3% | residual activity [9]: 79.4% | residual activity [10]: 8.35% | residual activity [11]: 70.3% | residual activity [12]: 103% | residual activity [13]: 79.3% | residual activity [14]: 103% | residual activity [15]: 70.8% | residual activity [16]: 97.1% | residual activity [17]: 108% | residual activity [18]: 7.81% | residual activity [19]: 94.6% | residual activity [20]: 101% | residual activity [21]: 98.9% | residual activity [22]: 106% | residual activity [23]: 87.5% | residual activity [24]: 74.1% | residual activity [25]: 85.2% | residual activity [26]: 99.5% | residual activity [27]: 57.3% | residual activity [28]: 81.1% | residual activity [29]: 105% | residual activity [30]: 113% | residual activity [31]: 93.3% | residual activity [32]: 62.8% | residual activity [33]: 132% | residual activity [34]: 98.8% | residual activity [35]: 107% | residual activity [36]: 101% | residual activity [37]: 59.5% | residual activity [38]: 103% | residual activity [39]: 104% | residual activity [40]: 41.5% | residual activity [41]: 70.8% | residual activity [42]: 76.9%
